From patent US20180312473A1, “PHENAZINE DERIVATIVES AS ANTIMICROBIAL AGENTS” (priority 2015, published 2018)
In brackets after ≈: the same amount, converted by molar mass. Several values for one entry are separate records, joined by “and”; a condition that tells them apart may be missing. Equal entries are not always repeated. Where two headings read alike, the source gives them in different places. Marks after values point to notes of the source that are not given here.

Columns and labels:
[1] = test system: Enterococcus faecium (ATCC 700221), VRE; assay: MIC assay (broth microdilution, CLSI); assay type: cell-based
A. baumannii 19606 = assay: MIC assay (broth microdilution, CLSI); assay type: cell-based, Acinetobacter baumannii; conditions: Acinetobacter baumannii, 19606; read-out: A. baumannii 19606 MIC
P. aeruginosa (PAO1) = assay: MIC assay (broth microdilution, CLSI); assay type: cell-based; conditions: Pseudomonas aeruginosa, PAO1; read-out: PAO1 MIC
K. pneumoniae 13883 = assay: MIC assay (broth microdilution, CLSI); assay type: cell-based, Klebsiella pneumoniae; conditions: Klebsiella pneumoniae, 13883; read-out: K. pneumoniae 13883 MIC
E. coli UAEC-1 = assay: MIC assay (broth microdilution, CLSI); assay type: cell-based; conditions: Escherichia coli, UAEC1; read-out: E. coli UAEC-1 MIC
E. faecium 700221 (VRE) = assay: MIC assay with Tiron or metal(II) cation co-treatment; assay type: cell-based, Enterococcus faecium
[2] = Aqueous solubility under MIC assay conditions; assay type: physicochemical; conditions: MIC assay media, 37 °C, aqueous buffer; read-out: [aq. soluble]
[3] = Spectrophotometric determination of dissociation constants (pKa); assay type: physicochemical; conditions: UV-vis at varying pH, 1:1 water:methanol buffers
Experimental: Dissociation constants (pKa) for select analogues were determined by implementing UV-vis spectroscopy at varying pH values. Buffers were prepared using potassium phosphate monobasic (KH2PO4) and sodium phosphate dibasic (Na2HPO4) in a 1:1 solution of water:methanol to achieve a pH range of 3.78 to 10.94. Compounds were added from 10 mM stock solutions in dimethyl sulfoxide (12.5 μL) to 987.5 μL of each buffer to yield a final compound concentration of 125 μM. Full spectral scans were performed for each evaluated analogue at pH 3.78 and pH 10.94 from 300 to 800 nm to determine λmax values for the protonated phenol (HA; e.g., HP 2 below) and the deprotonated phenolate species (A^−; e.g., conjugate base of HP 2 below). The change in absorption at each determined λmax in relation to pH was then monitored in each buffer and then plotted as absorbance versus pH for each species. The pKa was first estimated by determining the pH of the point of intersection of the two linear curves as shown. The visual estimation was confirmed by plotting pH versus log [A^−/HA]. The resulting plot yielded a linear regression line with a Y-intercept corresponding to a calculated pKa value.

[4] = test system: MRSA BAA-1707 planktonic cells and biofilms; assay: Calgary Biofilm Device (CBD) assay, MBC/MBEC; conditions: Staphylococcus aureus, read-out: MRSA BAA-1707 MBC
[5] = test system: Staphylococcus epidermidis (ATCC 12228); assay: MIC assay (broth microdilution, CLSI); assay type: cell-based; conditions: Staphylococcus epidermidis, ATCC12228; Table 7; b lowest concentration tested; read-out: MIC, S. epidermidis 12228
MRSE 35984 biofilms = assay: Live/Dead staining (fluorescence microscopy) of MRSE 35984 biofilms; assay type: cell-based, Staphylococcus epidermidis; conditions: 24 h
Experimental: In addition to Calgary Biofilm Device experiments, we evaluated select HPs against staphylococcal biofilms in live/dead staining experiments. HP 14 was added to 24 hour old MRSE biofilms at 0.1, 1, and 10 μM and allowed to incubate at 37° C. for an additional 24 hours. Following this, images of the treated and untreated S. epidermidis biofilm were taken using fluorescence microscopy (FIG. 11).
A mid-log culture of MRSE […] was diluted 1:1,000-fold and 500 μL was transferred to each compartment of a 4 compartment CELLview dish (Greiner Bio-One 627871). The dish was then incubated for 24 hours at 37° C. After this time, the cultures were removed and the plate was washed with 0.9% saline. The dish was then treated with the compounds in fresh media at various concentrations. DMSO was used as our negative control in this assay. The dish was incubated with the compound for 24 hours at 37° C. After this time, the cultures were removed and the dish was washed with 0.9% saline for 2 minutes. Saline was then removed and 500 μL of the stain (Live/Dead BacLight Viability Kit, Invitrogen) were added for 15 minutes and left in the dark. After this time, the stain was removed and the dish was washed twice with 0.9% saline. Then the dish was fixed with 500 μL 4% paraformaldehyde in PBS for 30 minutes. Images of remaining MRSE biofilms were then taken with a fluorescence microscope. All data were analyzed using IMAGE J software.

[6] = test system: MRSA-2 persister cells (stationary cultures); conditions: 12.5 μM; reduction of viable cells over 24 h; listed as 214
MRSA BAA-44 = assay: MIC assay (broth microdilution, CLSI); conditions: Staphylococcus aureus, read-out: MIC, MRSA BAA-44
[7] = test system: MRSA-2 persister cells (stationary cultures); assay: microbe, parasite or virus in culture; conditions: Staphylococcus aureus, 24 h, read-out: reduction of viable stationary MRSA-2 cells
[8] = test system: S. aureus clinical isolate SA 129; assay: MIC assay (broth microdilution, CLSI); conditions: Staphylococcus aureus, read-out: MIC, SA 129
[9] = test system: S. aureus clinical isolate SA 147; assay: MIC assay (broth microdilution, CLSI); conditions: Staphylococcus aureus, read-out: MIC, SA 147
[10] = test system: S. aureus clinical isolate SA 156; assay: MIC assay (broth microdilution, CLSI); conditions: Staphylococcus aureus, read-out: MIC, SA 156
[11] = test system: MRSA biofilms (MRSA-2, BAA-1707, BAA-44); assay: Calgary Biofilm Device assay, values summarised over MRSA strains
[12] = Table 7, b lowest concentration tested, read-out: MIC, VRE 700221

## Oc1ccc(I)c2nc3cc(Cl)c(Cl)cc3nc12 [Compound 12, 7,8-Dichloro-4-iodo-1-hydroxyphenazine]
[1]; Enterococcus faecium, read-out: MIC, Enterococcus faecium (ATCC 700221), Table 2B, b lowest concentration tested
  MIC: 3.13 µM
[1]; [12]
  MIC: 3.13 µM
[1]; read-out: MIC, VRE 700221, Table 7, b lowest concentration tested
  MIC: 3.13 to 6.25 µM
A. baumannii 19606
  MIC: > 100 µM
P. aeruginosa (PAO1)
  MIC: > 100 µM
K. pneumoniae 13883
  MIC: > 100 µM
E. coli UAEC-1
  MIC: > 100 µM
E. faecium 700221 (VRE)
  MIC: 3.13 µM
E. faecium 700221 (VRE); Enterococcus faecium, VRE
  MIC: 3.13 µM
E. faecium 700221 (VRE); Enterococcus faecium, VRE, read-out: MIC with Tiron
  MIC: 3.13 µM
E. faecium 700221 (VRE); Enterococcus faecium, VRE, E. faecium 700221, 200 μM CuSO4, read-out: MIC with Cu^2+
  MIC: 1.56 µM
E. faecium 700221 (VRE); read-out: MIC with Tiron
  MIC: 3.13 µM
[2]
  solubility at 16 h: 200 µM (≈ 78.2 µg/mL)
[3]
  pKa: 7.70
[4]
  MBC: 75 µM (≈ 29.3 µg/mL)

## Oc1c(Br)cc(I)c2nc3cc(Cl)c(Cl)cc3nc12 [Compound 14, 2-bromo-7,8-dichloro-4-iodo-1-hydroxyphenazine]
[5]
  MIC: 0.1 µM (≈ 0.047 µg/mL)
[1]; Enterococcus faecium, Table 2A, read-out: MIC, Enterococcus faecium (ATCC 700221)
  MIC: < 0.1 µM
[1]; Enterococcus faecium, Table 2B, b lowest concentration tested, read-out: MIC, Enterococcus faecium (ATCC 700221)
  MIC: 0.1 µM
[1]; Table 7, b lowest concentration tested
  MIC, VRE 700221: 0.10^b μM
[1]; [12]
  MIC: 0.1 µM
[1]; read-out: MIC, VRE
  MIC: 0.05 µg/mL
A. baumannii 19606
  MIC: > 100 µM
[2]
  solubility at 16 h: 200 µM (≈ 94 µg/mL)
[3]
  pKa: 6.95
MRSE 35984 biofilms; 0.1 μM
  effect on established MRSE biofilm (Live/Dead staining): a significant amount of MRSE biofilm cells were eradicated, however, not cleared from within the biofilm
MRSE 35984 biofilms; 1 μM
  effect on established MRSE biofilm (Live/Dead staining): a significant amount of the biofilm cells
MRSE 35984 biofilms; 10 μM
  effect on established MRSE biofilm (Live/Dead staining): removed all detectable MRSE biofilm cells from the glass surface
[6]
  MRSA-2 stationary killing: >3 log
MRSA BAA-44
  MIC: 3.13 µM (≈ 1.47 µg/mL)
[7]
  inhibition at 12.5 µM: > 99.9%
[8]
  MIC: 1.56 µM (≈ 0.733 µg/mL)
[9]
  MIC: 0.3 µM (≈ 0.141 µg/mL)
[10]
  MIC: 0.3 µM (≈ 0.141 µg/mL)
[11]
  MBEC against MRSA biofilms: < 10 µM and 6.25 to 9.38 µM
